In patent publication US12514859B2, “Pyrazole pyrimidine derivative and uses thereof” (Yissum Research Development Company of the Hebrew …, priority 2015, dated 2026):

Experiments:
IRAK1 = target: T1, IRAK1 (Homo sapiens, UniProt P51617); assay: IRAK1 inhibition in RKO cells treated with TNFα (Western blot); assay type: cell-based; settings: RKO cells, Western blot; A51 1 μM, A14 2 μM, 16 hours, TNFα 100 units/ml
T1 construct: endogenous in cells; host or cells: RKO cells, stimulated with TNFα
Experimental: (§1) Cells were harvested and analyzed by Western blot. Blots were incubated with the following antibodies: Phospho-IRAK1 (Thr209), (A1074, AssayBiothechnology; 1/1,000), Phospho-IKKα/β (Ser176/180) (16A6, Cell Signaling; 1/1,000), IKKα (2682, cell signaling; 1/1,1000), IKK β (2370, cell signaling; 1/1,1000), Phospho-c-Jun (Ser 63) (9261, cell signaling; 1/1,1000), p53 (DO-1&1801 hybridoma mix; dilution of 1:20 of supernatants from each), CKIα (C-19; 1/1,000; Santa Cruz Biotechnology) and phospho-histoneH2AX (S139; 1/1,000; Millipore). Secondary antibodies were HRP-linked goat anti-mouse, goat anti-rabbit and rabbit anti-goat antibodies (all 1/10,000; Jackson). Inhibition of Phospho-IRAK1, Phospho-IKKα/β and Phospho-c-Jun indicate IRAK1 inhibition. p53 stabilization and phosphorylation of H2AX (γH2AX), a marker of DNA damage, indicative of CKIα kinase inhibition. CKIα protein levels serves as a loading control.
as §1, with “IRAK1 Inhibition with compounds of the invention. RKO cells were incubated for 16 hours at 37° C. with the indicated concentrations of compounds of the invention A51 (1 μM) and A14 (2 μM) (FIG. 10). At the indicated time points, RKO were treated with TNFα (100 units/ml). Cells” for “Cells”, “IKKβ” for “IKK β”, “Blots were developed using ECL (GE Healthcare). […] Also shown is” for “Inhibition of Phospho-IRAK1, Phospho-IKKα/β and Phospho-c-Jun indicate IRAK1 inhibition.”

AML mice (MLL-AF9) = assay: MLL-AF9 acute myeloid leukemia (AML) mouse model; assay type: in vivo; settings: oral gavage 20 mg/kg for 3 days then 10 mg/kg/day for 6 days
Experimental: Generation of a mouse model of acute myeloid leukemia (AML) (FIG. 6) and treatment with the CKIα inhibitor A14 (FIGS. 7, 8 and 9) or A51 (FIGS. 11 and 12). To generate the MLL-AF9 Acute myeloid leukemia (AML) model, bone marrow (BM) cells from 10 week old wild type mouse were extracted and enriched for cKit expressing cells (EasySep #18757) and incubated overnight in RPMI supplemented with 15% FCS L-Glutamine, Pen/Strep (Biological Industries, Israel) and stem cell factor (SCF), IL-3, IL-6 and TPO (Peprotech). The culture was infected with MSCV-MLL-AF9-IRES-GFP retrovirus construct containing supernatant medium for 4 hours, then growth medium was added and infected cells were incubated at 37° C. for additional 24 h. The culture was then injected I.V. into sub lethally irradiated (500 rad) mice. Upon detectable steady increase of GFP expressing cells in the mice peripheral blood (checked by FACS analysis) and rise in leukocyte numbers and immature cells (detected by Wright-Giemsa stained blood films), mice were sacrificed and their BM was transferred (1st BMT) to sublethally irradiated WT hosts. Upon emergence of AML disease mice were sacrificed and 50,000 BM cells were transplanted (2nd BMT) into WT host mice. GFP expressing cells were monitored in the peripheral blood and upon detecting >10% GFP^+ in PB (day 11 after BMT) mice were treated with A14 inhibitor (FIG. 7A). A14 was administered by oral gavage once a day at a dose of 20 mg/kg for 3 days followed by 10 mg/kg/day for 6 more days. The inhibitor was dissolved in 1% methyl cellulose with 0.1% Tween 80 and 0.2% Poly-ethylene glycol (Vehicle). Control mice were treated with the vehicle only. Mice were monitored daily for cachexia, lethargy, and ruff coats, and moribund mice were sacrificed. For a single dose experiment (FIG. 11A) A51 was administered by oral gavage at a single dose of 20 mg/kg and mice were sacrificed 16 hours following treatment.
Complete blood counts. Peripheral venous blood was obtained from the mouse facial vein using standard techniques and analyzed using the auto hematology analyzer BC-2800 (Mindray) per manufacturer's instructions.
Single-dose treatment effect of a CKI inhibitor in AML mice and PD-L1 expression. AML mice were prepared by inoculating MLL-AF9 oncogene-transduced bone marrow cells to C57/BL6 mice. MLL-AF9 fusion represents one of a poor prognosis human AML induced by chromosomal translocation. 30 days after leukemia inoculation, the recipient mice have high white blood cells (WBC) counts (×10 higher than a normal mouse), and harbor >95% leukemia blasts in the bone marrow and 50% of the peripheral WBC in these mice are AML blasts. These mice have splenomegaly and their bones are pale and fragile due to the acute leukemia (FIG. 12).

T1 sequence (P51617 whole entry): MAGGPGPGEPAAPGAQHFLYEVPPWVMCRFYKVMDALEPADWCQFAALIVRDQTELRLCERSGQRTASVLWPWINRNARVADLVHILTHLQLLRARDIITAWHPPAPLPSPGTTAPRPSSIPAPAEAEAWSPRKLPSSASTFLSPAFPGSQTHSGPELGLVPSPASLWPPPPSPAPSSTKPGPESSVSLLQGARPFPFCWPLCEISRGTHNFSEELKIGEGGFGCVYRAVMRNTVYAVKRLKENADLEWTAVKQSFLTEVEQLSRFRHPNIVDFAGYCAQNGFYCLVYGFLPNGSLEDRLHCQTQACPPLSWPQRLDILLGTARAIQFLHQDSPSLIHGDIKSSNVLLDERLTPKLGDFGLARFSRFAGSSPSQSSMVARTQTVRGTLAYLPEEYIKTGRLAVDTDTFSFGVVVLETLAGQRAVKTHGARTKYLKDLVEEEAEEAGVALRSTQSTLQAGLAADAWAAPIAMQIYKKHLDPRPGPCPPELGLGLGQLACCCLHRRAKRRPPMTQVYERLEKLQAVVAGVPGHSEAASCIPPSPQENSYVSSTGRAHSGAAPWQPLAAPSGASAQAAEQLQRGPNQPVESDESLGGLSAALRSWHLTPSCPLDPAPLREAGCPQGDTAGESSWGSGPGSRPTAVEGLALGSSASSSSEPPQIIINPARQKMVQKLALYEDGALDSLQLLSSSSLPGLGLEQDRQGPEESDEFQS

Cn1ncc(-c2ccnc(N[C@H]3CC[C@H](N)CC3)n2)c1CC1CC1 [Compound A14, (1R, 4R)—N^1-(4-(5-(cyclopropylmethyl)-1-methyl-1H-pyrazol-4-yl)pyrimidin-2-yl)cyclohexane-1,4-diamine]
IRAK1 activation and activation of the IRAK1 target IKK (in words) (IRAK1): inhibition of IRAK1 activation | progression of AML, GFP+ leukocytes in peripheral blood (in words) (AML mice (MLL-AF9)): inhibitory effect
